Legend:
[1] = target: T1, recombinant human ALK5 (TGF-βR1) protein (Homo sapiens, UniProt P36897); experiment: Biochemical ALK5 (TGF-βR1) assay to measure pKi (LANCE Ultra ULight kinase assay); details: apparent pKi from pIC50 by Cheng-Prusoff, read-out: ALK5 pKi (converted)
T1 construct: purchased Life Technologies PR9075A
T1 sequence (P36897 34-503): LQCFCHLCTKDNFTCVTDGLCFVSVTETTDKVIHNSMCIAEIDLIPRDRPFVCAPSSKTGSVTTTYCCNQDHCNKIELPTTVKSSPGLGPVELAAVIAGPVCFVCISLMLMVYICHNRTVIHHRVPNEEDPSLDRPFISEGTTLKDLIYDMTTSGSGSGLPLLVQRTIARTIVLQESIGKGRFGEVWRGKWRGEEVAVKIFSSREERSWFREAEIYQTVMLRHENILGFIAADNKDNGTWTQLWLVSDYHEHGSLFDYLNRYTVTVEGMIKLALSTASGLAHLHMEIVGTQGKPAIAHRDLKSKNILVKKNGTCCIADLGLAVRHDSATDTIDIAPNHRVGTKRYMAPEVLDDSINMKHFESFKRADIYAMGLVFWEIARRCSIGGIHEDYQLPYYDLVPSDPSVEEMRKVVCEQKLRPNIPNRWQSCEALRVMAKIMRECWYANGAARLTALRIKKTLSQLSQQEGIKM
Procedure: The assays were performed in a 384-well plate (24 columns×16 wells/rows). An Echo® 550 Liquid Handler (Labcyte) was used to prepare various intermediate concentrations of compounds of the present disclosure in 100% DMSO. From the intermediate concentrations, a range of concentrations (from 10 μM to 25 pM corresponding to volumes up to 105 nL) were prepared and ejected into a final assay plate to be used to create individual dose response curves for each of the subject compounds. To a separate column within the assay plate, 105 nL of DMSO in each well was used to establish a maximum assay signal.
With a multidrop dispenser, 8 μL of enzyme mixture (1.25× final) was added to each well. […] The plate was then sealed with an adhesive seal and allowed to equilibrate for 60 minutes at room temperature.
Next, 2 μL of 125 μM ATP (5× final, 125 μM ATP prepared in assay buffer with 2 mM DTT) was added to the incubated mixtures, covered with a MicroClime® Environmental Lid (Product No. LLS-0310, Labcyte) and immediately transferred to 37° C. The reactions were allowed to proceed at 37° C. for 60 minutes before terminating with the addition of 10 μL of detection antibody (LANCE® (lanthanide chelate excite) Ultra Europium-anti-phospo-DNA Topoisomerase 2-alpha (Thr1342)) in detection mixture (12 mM EDTA, 4 nM detection antibody prepared in detection buffer (50 mM Tris-HCl, 150 mM NaCl, 0.5% BSA (Fraction V), pH 7.0)) at room temperature. The plate was then read on a Perkin Elmer EnVision Plate Reader using europium specific reader settings with excitation and emission wavelengths set to 320 or 340 nm and 665 nm, respectively.
For dose-response analyses, percent inhibition versus compound concentrations were plotted, and pIC50 values were determined from a 4-parameter robust fit model with GraphPad Prism V5 Software (GraphPad Software, Inc., La Jolla, Calif.). This model obtains pIC50 values by fitting the sigmoidal dose-response (variable slope) equation to the data. Results were expressed as pIC50 (negative logarithm of IC50) and subsequently converted to pKi (negative logarithm of dissociate constant, K) using the Cheng-Prusoff equation. The higher the value of pKi (lower value of Ki), the greater the inhibition of ALK5 activity.

[2] = test system: TGF-β-stimulated SMAD3 phosphorylation in BEAS-2B cells; experiment: Cellular ALK5 potency assay, inhibition of TGF-β stimulated pSMAD3 formation in BEAS-2B cells; type: cell-based; details: Homo sapiens; inhibition of TGF-β stimulated pSMAD3 formation, BEAS-2B cells; read-out: BEAS2B pIC50 (converted)
Procedure: The potency of compounds of the present disclosure for inhibition of TGF-β-stimulated SMAD3 phosphorylation was measured in BEAS-2B cells, a human lung epithelial cell line. TGF-β signals through activin receptor-like kinase 5 (ALK5) immediately prior to SMAD3 phosphorylation.
BEAS-2B cells were grown using 50% DMEM (Life Technologies) and 50% F-12 (Life Technologies) media, supplemented with 10% Fetal Bovine Serum (ATCC), 25 mM HEPES (Life Technologies), and 1× Pen-Strep (Life Technologies). Cells were cultured in a humidified incubator set at 37° C., 5% CO2, and trypsonized using 0.25% Trypsin with 0.5% polyvinylpyrrolidone (PVP).
For the assay, BEAS-2B cells were seeded at 7,500 cells/well (25 μL/well) in a 384-well plate and cultured overnight. Before dosing, growth media was aspirated and the wells were rinsed with HBSS Buffer (HBSS with Calcium and Magnesium, Life Technologies) supplemented with 25 mM HEPES (Life Technologies) and 1% Bovine Serum Albumin (Roche). Compounds were serially diluted in DMSO, then further diluted with supplemented HBSS Buffer (50 μL/well) to create a compound plate 3× of the final assay concentration, at 0.3% DMSO. The diluted compounds were then added to the cells (8 μL/well) and incubated at 37° C., 5% CO2 for 1 hour. After the compound incubation, TGF-β (R&D Systems) reconstituted in supplemented HBSS Buffer was added to the cells ([…], final concentration 10 ng/mL) and incubated for a further 30 minutes, after which the cells were immediately lysed with AlphaLISA lysis buffer (PerkinElmer). AlphaLISA Acceptor and Detector beads (PerkinElmer) were added 2 hours apart, then incubated overnight to be read the next day. The potency of the compound was determined through analysis of dose-dependent quantified changes in pSMAD3 signal from baseline (non-compound treated TGF-β stimulated cells). Data are expressed as pIC50 (negative decadic logarithm IC50) values.

| Structure (SMILES) | Ki [1] [nM] | IC50 [2] [nM] |
| --- | --- | --- |
| Cc1cccc(-c2[nH]nnc2-c2ccc3ncc(N4CCC(N(C)C)C4)cc3c2)n1 (racemic) [Compound 561, rac-(3S)-N,N-dimethyl-1-[6-[5-(6-methyl-2-pyridyl)-1H-triazol-4-yl]-3-quinolyl]pyrrolidin-3-amine] | < 0.0316 | 25.1 to 158 |
| Cc1cccc(-c2n[nH]cc2-c2ccc3ncc(N4C[C@@H]5CCN[C@@H]5C4)cc3n2)n1 (racemic) [Compound 598, 2-[3-(6-methyl-2-pyridyl)-1H-pyrazol-4-yl]-7-[rac-(3aS,6aS)-2,3,3a,4,6,6a-hexahydro-1H-pyrrolo[2,3-c]pyrrol-5-yl]-1,5-naphthyridine] | < 0.0316 | 25.1 to 158 |
| Cc1cccc(-c2[nH]c(CNc3ccccc3F)nc2-c2ccc3ncc(N4CCC(N(C)C)C4)cc3c2)n1 (racemic) [Compound 652, rac-(3S)-1-[6-[2-[(2-fluoroanilino)methyl]-5-(6-methyl-2-pyridyl)-1H-imidazol-4-yl]-3-quinolyl]-N,N-dimethyl-pyrrolidin-3-amine] | 0.0398 to 0.316 | 200 to 1260 |
| Cc1cccc(-c2[nH]cnc2-c2ccc3ncc(C(=O)O[C@@H]4CC[C@@H](N)C4)cc3c2)n1 (racemic) [Compound 766, [rac-(1R,3R)-3-aminocyclopentyl] 6-[5-(6-methyl-2-pyridyl)-1H-imidazol-4-yl]quinoline-3-carboxylate] | 0.0398 to 0.316 | 25.1 to 158 |
| Cc1cccc(-c2[nH]cnc2-c2ccc3ncc(C(=O)OC[C@@H]4CCC[C@H](N)C4)cc3c2)n1 (racemic) [Compound 767, [rac-(1R,3S)-3-aminocyclohexyl]methyl 6-[5-(6-methyl-2-pyridyl)-1H-imidazol-4-yl]quinoline-3-carboxylate] | 0.0398 to 0.316 | 25.1 to 158 |
| Cc1cccc(-c2[nH]cnc2-c2ccc3ncc(C(=O)OC[C@H]4CCC[C@H](N)C4)cc3c2)n1 (racemic) [Compound 769, [rac-(1S,3S)-3-aminocyclohexyl]methyl 6-[5-(6-methyl-2-pyridyl)-1H-imidazol-4-yl]quinoline-3-carboxylate] | 0.0398 to 0.316 | 25.1 to 158 |
| Cc1cccc(-c2[nH]cnc2-c2ccc3ncc(C(=O)O[C@H]4CCC[C@H](N)C4)cc3c2)n1 (racemic) [Compound 774, [rac-(1S,3S)-3-aminocyclohexyl] 6-[5-(6-methyl-2-pyridyl)-1H-imidazol-4-yl]quinoline-3-carboxylate] | 0.398 to 3.16 | 200 to 1260 |
| Cc1cccc(-c2[nH]cnc2-c2ccc3ncc(C4=CCC(NC(=O)CC5CNC5)CC4)cc3c2)n1 (racemic) [Compound 793, 2-(azetidin-3-yl)-N-[rac-(1R)-4-[6-[5-(6-methyl-2-pyridyl)-1H-imidazol-4-yl]-3-quinolyl]cyclohex-3-en-1-yl]acetamide] | 0.0398 to 0.316 | 200 to 1260 |
| Cc1cccc(-c2n[nH]cc2-c2ccc3nccc(C(=O)NCCCC[C@H](NC(=O)[C@@H](C)N)C(=O)O)c3n2)n1 (racemic) [Compound 804, rac-(2S)-6-[[6-[3-(6-methyl-2-pyridyl)-1H-pyrazol-4-yl]-1,5-naphthyridine-4-carbonyl]amino]-2-[[rac-(2R)-2-aminopropanoyl]amino]hexanoic acid] | 0.398 to 3.16 | 1580 to 10000 |
| Cc1cccc(-c2n[nH]cc2-c2ccc3nccc(C(=O)NCCCCC(NC(=O)CN)C(=O)O)c3n2)n1 (racemic) [Compound 805, rac-(2S)-2-[(2-aminoacetyl)amino]-6-[[6-[3-(6-methyl-2-pyridyl)-1H-pyrazol-4-yl]-1,5-naphthyridine-4-carbonyl]amino]hexanoic acid] | 0.398 to 3.16 | 1580 to 10000 |
| Cc1cccc(-c2n[nH]cc2-c2ccc3nccc(C(=O)NCCCCCCNC(=O)[C@@H]4CCCN4C(=O)CN4CCOCC4)c3n2)n1 (racemic) [Compound 809, 6-[3-(6-methyl-2-pyridyl)-1H-pyrazol-4-yl]-N-[6-[[rac-(2S)-1-(2-morpholinoacetyl)pyrrolidine-2-carbonyl]amino]hexyl]-1,5-naphthyridine-4-carboxamide] | 0.398 to 3.16 | 200 to 1260 |
| Cc1cccc(-c2n[nH]cc2-c2ccc3nccc(C4CO[C@H]5CNC[C@@H]5N4)c3n2)n1 (mixture of isomers) [Compound 861, rac-(4aS,7aS)-3-[6-[3-(6-methyl-2-pyridyl)-1H-pyrazol-4-yl]-1,5-naphthyridin-4-yl]-2,3,4,4a,5,6,7,7a-octahydropyrrolo[3,4-b][1,4]oxazine] | 3.98 to 31.6 | 200 to 1260 |
| Cc1cccc(-c2n[nH]cc2-c2ccc3nccc(N4CCC(N(C)C)C4)c3c2)n1 (racemic) [Compound 867, rac-(3S)-N,N-dimethyl-1-[6-[3-(6-methyl-2-pyridyl)-1H-pyrazol-4-yl]-4-quinolyl]pyrrolidin-3-amine] | 0.398 to 3.16 | 200 to 1260 |
| Cc1cccc(-c2[nH]ncc2-c2ccc3ncc(C(=O)OC[C@H]4CCCCN4)cc3c2)n1 (racemic) [Compound 1194, [rac-(2R)-2-piperidyl]methyl 6-[5-(6-methyl-2-pyridyl)-1H-pyrazol-4-yl]quinoline-3-carboxylate] | 0.0398 to 0.316 | < 20 |
| Cc1cccc(-c2[nH]cnc2-c2ccc3ncc(-c4csc(C(=O)OC[C@@H]5CCC[C@H](N)C5)c4)cc3c2)n1 (racemic) [Compound 1197, [rac-(1R,3S)-3-aminocyclohexyl]methyl 4-[6-[5-(6-methyl-2-pyridyl)-1H-imidazol-4-yl]-3-quinolyl]thiophene-2-carboxylate] | 0.0398 to 0.316 | 25.1 to 158 |
| Cc1cccc(-c2[nH]cnc2-c2ccc3ncc(-c4csc(C(=O)OC[C@@H]5CCC[C@@H](N)C5)c4)cc3c2)n1 (racemic) [Compound 1215, [rac-(1R,3R)-3-aminocyclohexyl]methyl 4-[6-[5-(6-methyl-2-pyridyl)-1H-imidazol-4-yl]-3-quinolyl]thiophene-2-carboxylate] | < 0.0316 | 25.1 to 158 |
| Cc1nc(-c2n[nH]cc2-c2ccc3ncc(-c4cnn5c4NCCC5)cc3n2)ccc1F [Compound 1, 2-[3-(5-fluoro-6-methyl-2-pyridyl)-1H-pyrazol-4-yl]-7-(4,5,6,7-tetrahydropyrazolo[1,5-a]pyrimidin-3-yl)-1,5-naphthyridine] | < 0.0316 | 25.1 to 158 |
| Cc1nc(-c2nc3ccccn3c2-c2ccc3ncc(N4CCNCC4)cc3n2)ccc1F [Compound 2, 2-[2-(5-fluoro-6-methyl-2-pyridyl)imidazo[1,2-a]pyridin-3-yl]-7-piperazin-1-yl-1,5-naphthyridine] | 0.0398 to 0.316 | 25.1 to 158 |
